The results in this text go back to patent US20260077055A1, “COMPOSITIONS OF POLYPLEXES AND SAPONINS” (SAPREME TECHNOLOGIES B.V., priority 2022, published 2026).

In one data set the test system is EGFR+ A431 cells. The experiment in a line: Cell viability (MTS) after polyplex transfection of A431 cells. The class given is cell-based. Particulars: for cell killing activity / saporin gene delivery, K16C npSaporin polyplexes: K16C alone up to about 5000 μM of plasmids (printed), SO1861-EMCH = free, co-administered with K16C-polyplexes. The procedure:
Spectrophotometry: Concentrations were determined using either a Thermo Nanodrop 2000 spectrometer or Perkin Elmer Lambda 365 Spectrophotometer. DLS measurements: DLS measurements were performed on a Malvern Nano ZS (Malvern Instruments, U.K.), operating at 633 nm with a 173° scattering angle, at 25 or 37° C. DLS mean diameters were obtained from the intensity particle size distribution provided by Malvern Zetasizer Software. DLS histograms were obtained from the intensity particle size distributions. Zeta-potential: The zeta-potential values of the polyplexes were obtained by laser doppler anemometry (LDA), measuring the mean electrophoretic mobility (Malvern Zetasizer Nano ZS, Malvern Instruments, U.K.). Measurements were performed in 10 mM HEPES pH 7.1, 150 mM NaCl. TEM measurements: TEM measurements were performed on a JEOL JEM-1011 operated at 100 kV electron microscope, equipped with a camera S5 MegaView G2. A drop of a solution of polyplexes (0.1 mg/mL) was settled on a PELCO® TEM carbon type-B film copper grid and allowed to dry at room temperature for 1 h. Infrared Spectroscopy: FT-IR spectra were recorded on a Bruker Vertex 70v, equipped with a RockSolid interferometer, after preparing the samples (1-2 mg) as KBr pellets. Spectra were processed using OPUS 7.8 software (Bruker). NMR Spectroscopy: 1H NMR spectra were recorded on a 11.7 T Bruker DRX-500 spectrometer. Chemical shifts are reported in ppm (o units) downfield from the HOD residual solvent peak (CD3OD). Experiments were recorded acquiring 64-512 scans, with a pre-scan delay (d1) of 12 s, and an acquisition time (aq) of 4 s at 300 K. 13C NMR spectrum was recorder on a 9.39 T Varian Innova 400 spectrometer. MestReNova 14.2 software (Mestrelab Research) was used for spectra processing. Cell culture conditions and treatments: HEK293FT, A431, A2058, Neuro2A, Hepa1-6 and MDA-MB 468 were maintained in 10% FBS-supplemented DMEM medium (PAN-Biotech GmbH, or Lonza Group, Basel, Switzerland)+Pen/Strep at 37° C. with 5% CO2. […] SO1861-EMCH was conjugated into/onto these polyplexes or co-administrated at 966 or 4000 nM to the different cell lines in vitro (as indicated). For this, cells were seeded in a 96 well plate at 5.000-10.000 c/w in 100 μL/well and incubated overnight at 37° C. Before treatment, the mAb-SO1861 and polyplexes were diluted separately in DPBS (PAN-Biotech GmbH) to 10× the required final concentration. The cells received 80 μL/well fresh media, followed by 20 μL/well polyplex solution and 20 μL/well saponin solution. In particular, before K16-polyplex treatments, K16-polyplexes were formulated in 10 mM HEPES, incubated for 30 min at room temperature and then diluted with complete cell culture medium. The complete cell culture medium was exchanged against 100 μL transfection medium. For co-administration of SO1861-EMCH, the transfection medium was supplemented with 2 μg/mL (=966 nM) SO1861-EMCH. Control transfections were performed with Lipofectamine™ 3000 Transfection Reagent (Thermo Fisher Scientific) according to the manufacturer's instruction, using either […] or 100 ng plasmid and with a media change 4-5 hrs after transfection. […] After treatment, the cells were incubated for 72 hr at 37° C. before the cell viability was determined by a MTS-assay performed according to the manufacturer's instruction (CellTiter 96® AQueous One Solution Cell Proliferation Assay, Promega). […]

Another data set relates to red blood cells (RBCs). The experiment in a line: Haemolysis assay. The class given is cell-based, human. Particulars: 2.5-80 μg/mL, 3 h at 37° C. The protocol: To get a first estimation of the haemolytic activity of the scaffolds and its potential to induce aggregation of red blood cells, possible disruption of red blood cells was investigated by measuring the release of haemoglobin into the supernatant according to the scheme shown in FIG. 24A. First, the red blood cells (RBCs) were treated with solutions containing PAMAM- or peptide-based scaffolds or polyplexes obtained therewith at different concentrations (2.5-80 μg/mL). The incubation was performed for 3 h at 37° C. RBCs treated with PBS under same conditions were used as a negative control while samples treated with Triton X-100 (10%) were used as a positive control corresponding to conditions of full haemolysis. After centrifugation, the absorbance at 540 nm (OD540) of the supernatants was recorded with a spectrometer. The following equation was used for the calculation of the percentages of haemolysis: […]

The subject of data set [1] is extrinsic part of the coagulation cascade. As to the kind of experiment: Prothrombin time in fresh whole blood. Particulars: reference 70-130%.
Method: (§1) As a next step, the erythrocyte aggregation propensity of the scaffolds was examined under an optical microscope to visualize possible interactions of the scaffolds and polyplexes with RBCs and their surface (FIG. 24C). […] Next, the impact on haemostasis was investigated. […] Consequently, to investigate the impact of the PAMAM- and peptide-based scaffolds on the patient's blood coagulation, these two parameters were measured in fresh whole blood after incubation of nanoparticles at different concentrations (0 nM-5 μM).
For a further data set, the system named is RBCs. The experiment in a line: Erythrocyte aggregation under optical microscope. Particulars: up to 80 μg/mL.
Another data set relates to intrinsic pathway. The experiment in a line: Activated partial thromboplastin time in fresh whole blood. Particulars: 0.1 μM; reference 26-40 s.

Where a SMILES comes first, the peptide text is derived from it. [ ]: non-standard residue; d: D form. Lys(N3) = [N-]=[N+]=NCCCC[C@H](N)C(=O)O

Method for intrinsic pathway: as §1

Regarding `[N-]=[N+]=NCCCC[C@H](NC(=O)[C@H](Cc1ccc(O)cc1)NC(=O)CNC(=O)CNC(=O)[C@H](CS)NC(=O)CNC(=O)CNC(=O)CNC(=O)CNC(=O)[C@H](CCCCN)NC(=O)[C@H](CCCCN)NC(=O)[C@H](CCCCN)NC(=O)[C@H](CCCCN)NC(=O)[C@H](CCCCN)NC(=O)[C@H](CCCCN)NC(=O)[C@H](CCCCN)NC(=O)[C@H](CCCCN)NC(=O)[C@H](CCCCN)NC(=O)[C@H](CCCCN)NC(=O)[C@H](CCCCN)NC(=O)[C@H](CCCCN)NC(=O)[C@H](CCCCN)NC(=O)[C@H](CCCCN)NC(=O)[C@H](CCCCN)NC(=O)[C@@H](N)CCCCN)C(N)=O` [K16C, K16G4CGGYK (N3)] (H-KKKKKKKKKKKKKKKKGGGGCGGY[Lys(N3)]-NH2), the “cell killing activity / saporin gene delivery, K16C npSaporin polyplexes” value with EGFR+ A431 cells is on record as “practically no cell killing activity”. Besides, the “cell killing activity of K16C npSaporin polyplex” value with EGFR+ A431 cells (up to about 1000 pM of plasmid, absence of free saponin or targeted saponin, N/P ratio 10) is “practically no enhanced cell killing activity”. For the same compound, in the data set on red blood cells (RBCs), the haemolytic activity result is “surprisingly low haemolysis degree”. Moreover, the “prothrombin time (PT)” value in data set [1] (0.1 μM) is 100%; in data set [1] (0.5 μM), 82%; in data set [1] (1 μM), 61%; in data set [1] (5 μM) it was 33.5%. In the data set on RBCs, the erythrocyte aggregation entry is on record as “did not cause any RBC aggregation”. The “partial thromboplastin time (PTT)” value in the data set with intrinsic pathway is reported as 38.5 s.

For the compound “K16G4CGGYK (N3)-SO18610.25 [K16C-(SO1861)0.25 eq]”, the “cell killing activity / saporin gene delivery, K16C npSaporin polyplexes” value in the data set on EGFR+ A431 cells is given as “the most efficient in saporin gene delivery into the cytoplasm”.
